Drawing on ChEMBL document CHEMBL1135245, “Highly potent inhibitors of TNF-alpha production. Part 1: Discovery of chemical leads” (2002), this text covers ED50, inhibition in vivo and ID50 for 36 compounds.

Molecules are shown by their SMILES.

What is called inhibition in vivo is the drop in the measured response relative to a control, in per cent.

The subject of experiment [1] is Rattus norvegicus. Kind of experiment: Inhibition of Tumor necrosis factor alpha production after i.v. dose of 0.01-0.1 mg/10 mL/kg in 6-8 weeks old rats. The class given is functional. Conditions: for ED50: Rattus norvegicus, iv, read-out: ID50 (the source's name).
In experiment [2] the test system is Rattus norvegicus. Kind of experiment: Tested for inhibition of Tumor necrosis factor alpha production after intravenous dosage of 10 mg/kg to 6-8 weeks old rats. The class given is functional.
In experiment [3] the test system is Mus musculus. Kind of experiment: Tested for inhibition of Tumor necrosis factor alpha production after intravenous dosage of 10 mg/kg to 8 weeks old mice. It is filed as functional.
Experiment [4] concerns Mus musculus. Nature of the experiment: Tested for inhibition of Tumor necrosis factor alpha production in 8 weeks old mice after intravenous dosage of 0.01-0.1 mg/10 mL/kg. The class given is functional. The note with it: for ED50: Mus musculus, iv, read-out: ID50 (the source's name).
Experiment [5] relates to Rattus norvegicus. Kind of experiment: Tested for inhibition of Tumor necrosis factor alpha production after intravenous dosage of 30 mg/kg to 6-8 weeks old rats pretreated with saline. The class given is functional.
Experiment [6] relates to Rattus norvegicus. Kind of experiment: Tested for inhibition of Tumor necrosis factor alpha production (po) in rats. The class given is functional. Conditions: read-out: ID50 (the source's name).
Experiment [7] has as its system Mus musculus. Kind of experiment: Tested for inhibition of Tumor necrosis factor alpha production after intravenous dosage of 30 mg/kg to 8 weeks old mice. The class given is functional.
Experiment [8] concerns Rattus norvegicus. Nature of the experiment: Tested for inhibition of Tumor necrosis factor alpha production after intravenous dosage of 10 mg/kg to 6-8 weeks old rats.

With `CCCCCCCC(=O)NC(COP(=O)([O-])[O-])c1ccccc1C.[Na+].[Na+]` (stereo not given), the ED50 in experiment [1] stood at 2 mg/kg. In the case of `CCCCCCCC(=O)NC(COP(=O)([O-])[O-])c1cccc(C)c1.[Na+].[Na+]` (stereo not given), in experiment [1], the ED50 was 53 mg/kg. As to `CCCCCCCC(=O)NC(COP(=O)(O)O)c1ccc(Cl)cc1` (stereo not given), in experiment [2], the inhibition in vivo at 10 mg/kg is -118%. Consider `CCCCCCCC(=O)N[C@H](COP(=O)([O-])[O-])c1ccccc1.[Na+].[Na+]`, for which the ED50 in experiment [1] is 10 mg/kg. Take `CCCCCCCC(=O)NC(COP(=O)(O)O)c1ccc(C)cc1` (stereo not given): the inhibition in vivo at 10 mg/kg in experiment [2] stood at 44%.

On to `CCCCCCC(C)(C)C(=O)N[C@@H](COP(=O)(O)O)c1ccccc1`, for which, in experiment [3], the inhibition in vivo at 10 mg/kg was 56%.

Take `CCCCCCOC(=O)N[C@@H](COP(=O)([O-])[O-])c1ccccc1.[Na+].[Na+]`: the ED50 came to 3.2 mg/kg in experiment [1] and 1.1 mg/kg in experiment [4].

On to `CCCCCCCCCCC(=O)N[C@@H](COP(=O)(O)O)c1ccccc1`, for which the inhibition in vivo at 10 mg/kg in experiment [3] was 50%. `CC(=O)N[C@@H](COP(=O)(O)O)c1ccccc1`: the inhibition in vivo at 10 mg/kg in experiment [3] was found to be 28%. In experiment [5], the inhibition in vivo at 30 mg/kg was determined as 21%. As for `CCCCCC(=O)N[C@@H](COP(=O)([O-])[O-])c1ccccc1.[Na+].[Na+]`, the ED50 in experiment [1] was found to be 50 mg/kg; in experiment [4] it was 30 mg/kg. `CCCCCCCC(=O)NC(COP(=O)([O-])[O-])c1cccc(OC(C)C)c1.[Na+].[Na+]` (stereo not given): in experiment [1], the ED50 amounted to 0.1 mg/kg.

Regarding `CCCC(=O)N[C@@H](COP(=O)(O)O)c1ccccc1`, the inhibition in vivo at 10 mg/kg in experiment [3] was determined as 17%. Besides, the inhibition in vivo at 30 mg/kg in experiment [5] was determined as 37%. Consider `CCCCCCC(=O)N[C@@H](COP(=O)([O-])[O-])c1ccccc1.[Na+].[Na+]`, for which the ED50 in experiment [1] worked out at 4.5 mg/kg; in experiment [4] it was 2.8 mg/kg. In the case of `CCCCCCCC(=O)NC(COP(=O)(O)O)c1ccccc1Cl` (stereo not given), the inhibition in vivo at 10 mg/kg in experiment [2] was found to be 46%. As to `CCCCCCCC(=O)N[C@@H](COP(=O)([O-])[O-])c1ccccc1.[Na+].[Na+]`, the values for the ED50 in experiment [1], in experiment [4] and in experiment [6] were 3 mg/kg, 0.8 mg/kg and 103 mg/kg, respectively. `CCCCCCCC(=O)NC(COP(=O)([O-])[O-])c1cccc(OCCC)c1.[Na+].[Na+]` (stereo not given): the ED50 in experiment [1] came to 0.7 mg/kg. For the compound `CCCCCCCC(=O)NC(COP(=O)([O-])[O-])c1cccc(Cl)c1.[Na+].[Na+]` (stereo not given), the ED50 in experiment [1] turned out to be 5.2 mg/kg. With `CCCCCCCC(=O)NC(COP(=O)(O)O)c1ccc(OC)cc1` (stereo not given), the inhibition in vivo at 10 mg/kg in experiment [2] worked out at 34%. For `CCCCCCCC(=O)NC(COP(=O)([O-])[O-])c1cccc(OCC)c1.[Na+].[Na+]` (stereo not given), the ED50 in experiment [1] was 0.2 mg/kg. Same read-out and setting: to `CCCCCCCC(=O)NC(COP(=O)([O-])[O-])c1cc(OC)cc(OC)c1.[Na+].[Na+]` (stereo not given) belongs 3.8 mg/kg; to `CCCCCCCC(=O)NC(COP(=O)([O-])[O-])c1cccc(OC2CCC2)c1.[Na+].[Na+]` (stereo not given), 0.9 mg/kg; to `CCCCCCCC(=O)NC(COP(=O)([O-])[O-])c1cccc(SC(C)C)c1.[Na+].[Na+]` (stereo not given), 0.21 mg/kg.

`CCCCCCNC(=O)N[C@@H](COP(=O)(O)O)c1ccccc1`: the inhibition in vivo at 10 mg/kg in experiment [3] was found to be 58%.

As for `CCCCCCCC(=O)NC(COP(=O)(O)O)c1cccc(OC2CCCC2)c1` (stereo not given), the inhibition in vivo at 10 mg/kg in experiment [2] stood at 7%. `CCCCCCCC(=O)NC(COP(=O)([O-])[O-])c1cccc(O)c1.[Na+].[Na+]` (stereo not given): the ED50 in experiment [1] was 1.4 mg/kg.

Regarding `CCCCCCCC(=O)NC(COP(=O)([O-])[O-])c1cccc(SC)c1.[Na+].[Na+]` (stereo not given), in experiment [1], the ED50 was 0.56 mg/kg. With `CCCCCCCC(=O)N[C@@H](COP(=O)([O-])[O-])c1cccc(OC)c1.[Na+].[Na+]`, the ED50 in experiment [4] came to 0.26 mg/kg. Consider `CCCC(CCC)C(=O)N[C@@H](COP(=O)(O)O)c1ccccc1`, for which the inhibition in vivo at 30 mg/kg in experiment [7] was 36%.

As to `O=C(CCCCc1ccccc1)N[C@@H](COP(=O)(O)O)c1ccccc1`, the inhibition in vivo at 10 mg/kg in experiment [3] worked out at 27%. For `CCCCCCCC(=O)N[C@H](COP(=O)([O-])[O-])c1cccc(OC)c1.[Na+].[Na+]`, the ED50 in experiment [1] was 1.6 mg/kg. As to `CCCCCCCC(=O)NC(COP(=O)(O)O)c1ccccc1OC` (stereo not given), the inhibition in vivo at 10 mg/kg in experiment [8] was found to be 55%. Turning to `O=C(N[C@@H](COP(=O)([O-])[O-])c1ccccc1)c1ccccc1.[Na+].[Na+]`, in experiment [3] (read-out: ID50 (the source's name)), the ED50 was determined as 32 mg/kg. Consider `CCCCCCCC(=O)NC(COP(=O)([O-])[O-])c1cccc(OC)c1.[Na+].[Na+]` (stereo not given), for which the ED50 in experiment [1] is 0.5 mg/kg. As to `CCCCCCCC(=O)NC(COP(=O)([O-])[O-])c1cccc(OCC(C)C)c1.[Na+].[Na+]` (stereo not given), in experiment [1], the ED50 was 33 mg/kg. For the compound `CCCCCCC(C)C(=O)N[C@@H](COP(=O)([O-])[O-])c1ccccc1.[Na+].[Na+]` (single isomer, unassigned; more polar), the ID50 in experiment [1] came to 1.7 mg/kg; in experiment [4], 2.4 mg/kg. For the compound `CCCCCCC(C)C(=O)N[C@@H](COP(=O)([O-])[O-])c1ccccc1.[Na+].[Na+]` (stereo in doubt), the ID50 in experiment [1] amounted to 8 mg/kg. In experiment [4], the ED50 was determined as 4.2 mg/kg.
